Our source for the EC50 values is US12521381B2, “Anticoccidial agent and method for using the same” (NIHON NOHYAKU CO., LTD., priority 2020, dated 2026).

For orientation: EC50 means the concentration that produces a half-maximal response.

This experiment relates to chicken coccidium (Eimeria tenella). Briefly: Evaluation test of growth inhibition on chicken coccidium (Eimeria tenella). As to conditions: 48 h, mammal cells infected with sporozoite of chicken coccidium, indirect immunofluorescence, read-out: EC50 (inhibition of growth of chicken coccidium to a mature schizont). The format is cell-based. Here is the method:
Test Example 1: Evaluation Test of Growth Inhibition on Chicken Coccidium (Eimeria tenella) Each of the benzimidazole compounds represented by General Formula (1) or salts of the compounds according to the present invention was diluted with a regulating liquid to a predetermined concentration and placed in a microtiter plate. To the dilution in the plate, mammal cells infected with a sporozoite of chicken coccidium were incubated. Forty-eight hours later, the degree of inhibition on growth of chicken coccidium to a mature schizont was examined by an indirect immunofluorescence technique, and EC50 was determined by calculation.

On to `FC(F)(F)C(F)(F)COc1ccc(-c2nc3cc(Br)c(Br)cc3[nH]2)cn1` [Compound 11-5, 5,6-dibromo-2-(6-(2,2,3,3,3-pentafluoropropoxy)pyrid-3-yl)benzimidazole], for which the EC50 is not above 20 µM.
